Measured values published in patent publication US6911454B1, “Method for potentiating primary drugs in treating multidrug resistant disease” (priority 1989, dated 2005).
“Also recorded” adds a separate entry of the source.

Tests used:
breast cancer = experiment: treatment of a person with breast cancer; assay type: in vivo, human; settings: d-tetrandrine 180 mg per day orally from day 95, with trichemo (5-fluorouracil, cyclophosphamide, doxorubicin)
Protocol: A person with breast cancer was given d-tetrandrine orally, three times a day for a total of 180 mg per day, over a two week period. Five days after the beginning of that treatment, they were given a trichemo soup of 5-fluorouracil, cyclophosphamide and doxorubicin. Eight days later, near the end of the d-tetrandrine dosage, they were given 5-fluorouracil. This regime was followed two different times approximately two weeks apart during the course of retreatment.
A person with very serious breast cancer has also been successfully treated in accordance with the method of the present invention. The tables below describe their treatment regime, which involved a trichemo soup of 5-fluorouracil, cyclophosphamide and doxorubicin, administered intermittently with 5-fluorouracil alone. No d-tetrandrine was administered until day 95.
FIG. 11 is a graphical log of […] tumor area in cubic centimeters charted against days elapsed. The tumor initially responded to the trichemo treatment alone, reducing in size until day 50.
The patient was diagnosed via biopsy on Mar. 19, 1991 as having an infiltrated carcinoma (poorly differentiated) on the right breast. […] They were treated with a combination of 5-fluorouracil, cyclophosphamide and doxorubicin according to the schedule shown below. […] Notice the increase in tumor size between days 50 and 100 indicating the formation of drug resistance.

DX20 = settings: FIG. 5; colony formation, 7 days; addition of d-tetrandrine
Protocol: The second assay model used, colony formation assay, consisted of 1000-1500 cells, again depending on the proliferation rate of the cell line being added to each well of 24 well microtiter plates in 500 microliters of culture media. The cells were allowed to attach overnight. […] The plates were incubated for a total of 7 days before being fixed in 2.5% glutaraldehyde and stained with crystal violet. Quantitations of colony growth were assessed using an ultrasensitive imaging device (LCVS-5, I.P.S., Pittsburgh, Pa.). A colony is defined as any cluster of 30 or more cells. Percent inhibition was directly measured against control plates containing no drugs.

DX20 cancer cells = experiment: modified MTT assay, drug sensitivity of DX20 cells; assay type: cell-based, human
Description: The MES-SA/DX20 cell line was established according to the development methods of Sikic et al., Resistance to Antineoplastic Drugs, Chap. 3, CRC Press, Ed. David Kessel, pp. 37-47 (1989). In vitro drug sensitivity testing consisted of two assay models, the modified MTT assay (Mossman, J. Immunolog. Methods, Vol. 65, pp. 55-63, 1983) and the colonogenic assay. In addition to this, the combinations were investigated in vivo in nude mice bearing the DX20 cell line. The MTT assay was chosen because of its practical advantages in large-scale screening. The assay involved cellular conversion of tetrazolium salt to a colored formazan serving as a measurement of cell viability.
In a given experiment, culture media, 50 microliters, containing 8,000-25,000 cells, depending on the proliferation rate of the cell line, was pipetted into each well of several 96-well microtiter plates. The cells were allowed to attach overnight. […] The cytotoxic drug, also at a concentration below that previously established as an IC50, was then added at decreasing concentrations by 25% to several half plate sections. The cells were allowed to grown for 72 hours. 100 microliters of media was then removed and 25 microliters of 5 mg/ml MTT (Sigma, St. Louis, Mo.) in phosphate buffered saline was added to each well. The plates were kept in an incubator at 37° C. and 5% CO2. After 2-3 hours of incubation, the extraction buffer containing 20% w/v SDS and 50% DMF was added and the plates again incubated overnight. The plates were read at a test wavelength of 570 nm on a multiwell spectrophotometer (Model MR 700, Dynatech Laboratories, Alexandria, Va.). Each drug combination was tested in triplicate. Percent survival was defined as percent of optical density (OD) of the drug-treated wells to that of the control detected by the spectrophotometer.
The in vitro drug sensitivity testing of ethyl fangchinoline consisted of two assay models, the modified MTT (Mossman 1983) and a colony formation assay in which a direct measure was taken by quantitation of colony formation. The MTT assay was chosen because of its practical advantages in large scale screening. The assay involves cellular conversion of tetrozolium salt to a colored formazan serving as a measurement of cell viability.
Two human cell lines were chosen as the primary targets of study in reversing multiple-drug resistance. The MES-SA, a sarcoma, and its resistant subline, DX-20, were kindly donated by Dr. B. Sikic (U of Stanford, Stanford, Calif.). The A2780, an ovarian cancer, and its resistant subline, A2780-ad10, were provided by Roswell Park Memorial Inst. (Buffalo, N.Y.).
Culture media, 50 ul containing 8,000 to 25,000 cells depending on the proliferation rate of the line, was pipetted into each of 96 wells in a flat bottom tissue plate. The cells were incubated overnight to allow adherence. One hundred ul of ethyl fangchinoline, at a concentration below that previously established as an independent IC50, was added to each experimental well. […] The plates were then incubated for 72 hours before MTT was added and the analysis of O.D. values interpreted by a multi-plate scanner (MR700, Dynatech).

DX20 tumor = experiment: tumor measurements in nude mice bearing the DX20 tumor; assay type: in vivo
Protocol: (See FIG. 6). Tumor size was calculated using the formula (4 Pi/3) X*Y*2Z.
The study was done with 3-4 week old male balb-C nude mice. The animals were injected with DX20 1×10^7 cells.

[1] = tested on: multidrug resistant human cancer (DX20); assay type: in vivo, mice; settings: d-tetrandrine 0.5, 1, 1.5 mg injections; doxorubicin 5.5 mg per kg; about one month
Protocol: It is only important that they be administered sufficiently close together that the cancer is exposed to both simultaneously. For example, nude mice infected with a multidrug resistant human cancer were given 0.5 mg, 1 mg and 1.5 mg respectively in three separate injections, 72 hours apart.

[2] = Day 7 Prior to Treatment (baseline)
[3] = Day 24 After Treatment, d-tetrandrine days 6, 8, 10, doxorubicin 5.5 mg/kg day 12

SMILES: COc1ccc2cc1Oc1ccc(cc1)C[C@H]1c3cc(c(OC)cc3CCN1C)Oc1c(OC)c(OC)cc3c1[C@H](C2)N(C)CC3 [TT, tetrandrine]
- tumor outcome in patient (breast cancer): substantially eliminated; also recorded: continued to diminish to nonexistence by day 175
- doxorubicin-resistance reversal (DX20): either partially or completely reversed
- IC50 (DX20 cancer cells; DX20 cells, single agent, read-out: IC50 alone): 4.3 µM
- doxorubicin resistance reversal (DX20 cancer cells; FIG. 1, DX20 versus parent MES-SA, addition of d-tetrandrine): either partially or completely reversed
- vincristine-resistance reversal (DX20 cancer cells; FIG. 2, DX20 versus parent MES-SA, addition of d-tetrandrine): either partially or completely reversed
- vinblastine resistance reversal (DX20 cancer cells; FIG. 3, DX20 versus parent MES-SA, addition of d-tetrandrine): either partially or completely reversed
- sensitivity of DX20 to doxorubicin versus parent (MES) cell line (DX20 cancer cells; d-tetrandrine 1.0×10^−6 M combined with doxorubicin 1.2×10^−8 M): becomes more sensitive to doxorubicin than the parent (MES) cell line
- Tumor Measurements Depth (DX20 tumor; [2]): 1.13
- Tumor Measurements Length (DX20 tumor; [2]): 4.13
- Tumor Measurements Width (DX20 tumor; [2]): 3.75
- Tumor Measurements Depth (DX20 tumor; [3]): 24.66
- Tumor Measurements Width (DX20 tumor; [3]): 26.16
- tumor outcome [1]: very large tumors which were unabated
